The results in this text go back to patent US20030087906A1, “NITROGEN SUBSTITUTED BIARYL PURINE DERIVATIVES AS POTENT ANTIPROLIFERATIVE AGENTS” (priority 2001, published 2003).

One experiment relates to implanted tumors. Description: Efficacy study: delay in growth of implanted tumors, regressions, tumor-free survivors. Type of experiment: in vivo, athymic mice. How it is done: The following data in Table 9 summarize the in vivo properties of several compounds of the current invention. The protocol for the experiment is as follows. The dose-range finding study consists of four groups of three athymic mice each (four dose levels.) The compound is administered on the basis of individual animal body weight. The route is intraperitoneal (IP) and the treatment schedule is daily for 14 days (qd×14) or once every 4 days for 12 days (q4d×3).
The efficacy study consists of three compound-treated groups (six mice/group), a positive control-treated group (six mice), and a vehicle-treated control group of 12 mice. Test compounds were administered IP under the treatment schedules listed above (qd×14 or q4d×3), whereas the positive control agent (Taxol) was administered intravenously (IV) at a dosage level of 15 mg/kg/dose for five consecutive days (qd×5). All agents were administered on the basis of individual animal body weight. Treatment began when the implanted tumors were approximately 100 mg in size (range of 65 to 200 mg). The mice were observed daily for survival. Each tumor was measured by caliper in two dimensions and converted to tumor mass using the formula for a prolate ellipsoid (a×b^2/2) and assuming unit density. Tumor measurements and animal body weights were recorded twice weekly. Antitumor activity was assessed by the delay in tumor growth of the treated groups in comparison to the vehicle-treated control group, partial and complete regressions, and tumor-free survivors.

The subject of experiment [1] is 60-human transformed cell lines. Description: NCI 60-cell line growth inhibition assay (whole panel). Type of experiment: cell-based. Particulars: range over 60 cell lines.

SMILES strings stand for the structures.

With `CC(C)n1cnc2c(NCc3ccc(-c4ccsc4)cc3)nc(N[C@H]3CC[C@H](N)CC3)nc21` [Compound 12], the “T-C” value stood at 1.2 days with implanted tumors (0.27 mg/kg IP q4d × 3), 0.2 days in the experiment with implanted tumors (0.4 mg/kg IP q4d × 3) and 0.3 days in the experiment on implanted tumors (0.6 mg/kg IP q4d × 3). Moreover, the Tumor free/total with implanted tumors (0.27 mg/kg IP q4d × 3), with implanted tumors (0.4 mg/kg IP q4d × 3) and in the experiment with implanted tumors (0.6 mg/kg IP q4d × 3) was 0/6 each time.
In experiment [1], `Cn1cnc2c(NCc3ccccc3)nc(NCCO)nc21` [Olomoucine, reference compound] came in with a GI50 of 20 to 100 µM.
